The experiment deals with T1, Nuclear receptor ROR-gamma (Homo sapiens, UniProt P51449).
T1 sequence (P51449 whole entry): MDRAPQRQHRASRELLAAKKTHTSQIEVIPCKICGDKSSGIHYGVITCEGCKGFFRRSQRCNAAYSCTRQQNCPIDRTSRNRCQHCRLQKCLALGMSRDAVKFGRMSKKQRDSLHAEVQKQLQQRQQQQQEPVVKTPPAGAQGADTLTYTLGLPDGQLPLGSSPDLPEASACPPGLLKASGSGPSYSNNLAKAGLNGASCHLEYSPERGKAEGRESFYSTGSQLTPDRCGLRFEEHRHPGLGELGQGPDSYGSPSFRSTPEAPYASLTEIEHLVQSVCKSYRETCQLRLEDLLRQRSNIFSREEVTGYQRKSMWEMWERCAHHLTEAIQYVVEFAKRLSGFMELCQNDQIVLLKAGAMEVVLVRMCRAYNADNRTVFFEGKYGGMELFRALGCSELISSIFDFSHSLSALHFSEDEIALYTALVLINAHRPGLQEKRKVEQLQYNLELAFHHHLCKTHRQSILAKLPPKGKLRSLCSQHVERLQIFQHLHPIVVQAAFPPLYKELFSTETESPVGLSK
Put plainly: Binding Assay: Compounds of the present invention were tested for ability to bind to RORγ in a cell-free competition assay with commercially available radio-ligand (RL), 25-hydroxy [26,27-3H]-cholesterol (PerkinElmer, Cat. #NET674250UC), for a ligand binding site on a recombinant RORγ Ligand Binding Domain (LBD) protein expressed as a 6×His-Glutathione-S-Transferase (GST) fusion. […] The plate was shaken at 700 rpm for 20 min and incubated for 10 min at rt, after which 40 μL of poly-Lys YSi SPA beads (PerkinElmer, Cat. #RPNQ0010) were added to achieve 50 μg of the beads per well. The plate was incubated on an orbital shaker for 20 min and then for 10 min without agitation at rt. SPA signal for tritium beta radiation was registered on PerkinElmer Microbeta plate reader.

As for `CCS(=O)(=O)c1ccc(CNC(=O)c2cnc3c(c2)C(=O)N(Cc2ccc(Cl)cc2)[C@H]3C(C)C)cc1`, the Ki is < 0.1 µM.

With `CCS(=O)(=O)c1ccc(C2(NC(=O)c3cnc4c(c3)CN(Cc3ccc(C(F)(F)F)cc3)[C@H]4C(C)C)CC2)nc1`, the inhibition constant (Ki) was < 0.1 µM. The same measure for `CCS(=O)(=O)c1ccc(CC(=O)Nc2cnc3c(c2)CN(Cc2ccc(Cl)cc2)[C@H]3C(C)C)cc1`: < 0.1 µM.

As usually defined, the Ki is a measure of affinity in units of concentration, obtained from inhibition or displacement.

Source of the values: ChEMBL document CHEMBL5726133, “Dihydropyrrolopyridine inhibitors of ROR-gamma” (2017).
